# Assay results from PMC5740082, “Identification of a CARM1 Inhibitor with Potent In Vitro and In Vivo Activity in Preclinical Models of Multiple Myeloma” (Scientific Reports, 2017).
# “And” between values parts separate entries of the source, which are not always exact repeats. Equal values may be shown once.
# Columns and labels:
# [1] = Plasma protein binding (equilibrium dialysis), mouse plasma; format: in vitro ADME, CD-1 mouse; conditions: male, CD-1, pH 7.4
# Description: Hepatocyte stability, plasma protein binding and cytochrome P450 assays were performed using standard procedures. Details can be found in Supplementary Methods. […]
# reaction. Plates were incubated at 37°C and 50 µL aliquots were removed from the incubation mixture at 0, 10, 20, 40, 60 and 90 min and added to 2 volumes of methanol containing metoprolol (internal standard) to stop the reaction. Negative control incubations with inactivated cell l ysat e were incubat ed for 90 min. Positive controls were verapamil and umbelliferone. The termination plates were centrifuged at 2,500 rpm for 20 min at 4°C to precipitate the protein prior to LC -MS/MS analysis. In vitro h alf -life (t½) value was det ermined b y plotting the natural logarithm of the anal yte/ IS peak area ratios as a function of time, with the slope of the linear regression (k; - gradient) converted to in vitro t ½ v alue wher e t ½=0.693/k. […]
# Plasma protein binding was assessed b y equilibrium dial ysis, utilizing the HT-dial ysis cell format with a cellulose semi- permeable membran e (molecular wei ght cut-off of 5000 Da).
# (pH 7.4) and 100% mixed gender pooled human, pooled male CD -1 mouse or Sprague-Dawle y rat plasma. […] Samples were quantified using standard curves prepared in the equivalent matrix. The fraction unbound in plas ma (fu) was calculated us ing the followin g equ ation: […]
# [2] = Pharmacokinetic study in rat
# Description: An additional group of rats, cannulated in both the jugular and portal veins were dosed by oral gavage (10 mg/kg, in 0.5% methylcellulose in water). Approximately 110 μL of blood was taken from the animals by retro-orbital bleeding (mouse), tail vein (rat i.v.) or both jugular and portal vein sampling (rat p.o.) at pre-specified time intervals. The 2 h samples were split for parallel determination of blood and plasma concentration (ex vivo ratio). Blood samples were collected into K2-EDTA tubes and centrifuged to obtain plasma.
# [3] = Sprague-Dawley, rat, plasma, po, 10 mg/kg
# [4] = male, Sprague-Dawley, rat, plasma, iv, 2 mg/kg
smiles,measurement,setting,value
CNC[C@@H](O)COc1ccc(Cl)c(-c2nc(-c3c(C)noc3C)c(C)c(N3CC4(CCN(C(=O)OC)CC4)C3)n2)c1 [EZM2302],"fraction unbound at 16 h, 5 µM",[1],0.46
same,CL (plasma clearance),"[2]; Sprague-Dawley rat, IV Bolus 2 mg/kg, 2 mg/kg",90.5 ± 10.5 mL/min/kg
same,Fa*Fg (fraction of the dose absorbed from the gastro-intestinal tract),"[2]; Sprague-Dawley rat, PO 10 mg/kg, JVC-PVC rat PK experiment, 10 mg/kg",81% and 80.7%
same,AUC(0-inf),[2]; [3],487 ± 102 ng·h/mL
same,AUC(0-t),[2]; [3],453 ± 89.3 ng·h/mL
same,Cmax,[2]; [3],113 ± 22.4 ng/mL
same,Tmax,[2]; [3],2 h
same,bioavailability,[2]; [3],26.2 ± 5.45%
same,half-life,[2]; [3],6.64 ± 1.41 h
same,AUC(0-inf),[2]; [4],372 ± 43.3 ng·h/mL
same,AUC(0-t),[2]; [4],352 ± 30.6 ng·h/mL
same,Vd,[2]; [4],35.6 ± 1.3 L/kg
same,half-life,[2]; [4],6.21 ± 1.65 h
same,clearance,"[2]; male, Sprague-Dawley, rat, plasma, iv, 2 mg/kg, CL (plasma clearance), Sprague-Dawley rat, IV Bolus 2 mg/kg",91 mL/min/kg
